Reference: paper PMC12817916, “A small-molecule HSP90 inhibitor, NVP-HSP990, alleviates rotavirus infection” (Journal of Virology, 2025)

Test system: RV VP2, VP6, NSP4, NSP5
Experiment: RV gene transcription and antigen expression in Caco-2 cells (qPCR, WB, IFA)
Type: cell-based, Rotavirus
Conditions: RV-infected Caco-2 cells, 18 h
Description: Caco-2 cells growing on coverslips were mock-infected with PBS or infected with RV Wa or SA11 strains (MOI = 1), then the cells were cultivated with DMEM containing 100 nM NVP-HSP990 or an equal volume of DMSO as a control for another 18 h after infection. The cells were then washed with PBS, fixed in 4% paraformaldehyde for 20 min, followed by permeabilization in 0.5% Triton X-100 for 10 min and blocking with 5% BSA (Beyotime, China) for 1 h at room temperature. The cells were then incubated with rabbit anti-ZO-1 monoclonal antibody (CST, USA) (1:100) or rabbit anti-RV VP6 polyclonal antibodies (CUSABIO, China) (1:50) for 2 h at room temperature, washed twice with PBS, and incubated with Cy3-conjugated goat anti-rabbit antibodies (Beyotime, China) (1:500) for 1 h at room temperature. In some experiments, the cells were also stained with FITC-conjugated goat anti-RV antibodies (Virostat, USA) (1:100) for 1 h at room temperature and followed by 5 µg/mL 2-(4-amidinophenyl)-6-indolecarbamidine dihydrochloride (DAPI) (Sigma-Aldrich, USA) staining for 10 min. The triple-stained cells were washed twice with PBS and mounted in Prolong Gold Antifade Reagent (CST, USA). Microscopic images were acquired with an EVOS M5000 system (Thermo Fisher Scientific, USA) using the built-in Celleste software (v.6.0). […] Minimal post-processing (image cropping and annotations) was applied through Adobe Illustrator 2019 (Adobe Systems, USA) to ensure readability. […]
MA104, Caco-2, and HT-29 cells were mock-infected with PBS, infected with RV Wa or SA11 strains (MOI = 3), or treated with 1 µM C16-PAF (C16) for 1 h. […] After protein quantification with a BCA kit (Beyotime, China), the protein samples were mixed with 25 µL 5× SDS loading buffer (Beyotime, China), boiled at 100°C for 5 min, chilled on ice, vortexed for seconds, and centrifuged at 12,000 × g for 3 min at room temperature. […]
(A) Caco-2 cells were infected with RV (Wa or SA11 strains) at varying MOIs (0.001–10), followed by treatment with 100 nM NVP-HSP990 or an equal volume of DMSO (as a control) for 24 h. Viral replication was assessed using PFA. […]

Structure (SMILES): COc1cccc(-c2cc(F)ccc2[C@H]2Cc3nc(N)nc(C)c3C(=O)N2)n1 [NVP-HSP990]
- RV VP6 expression (IFA) (100 nM): potent inhibition
- RNA synthesis of RV proteins VP2, VP6, NSP4, and NSP5 (qPCR) (MOI = 1, 100 nM): significant reduction
- RV structural protein VP6 (WB) (MOI = 1, 100 nM): remarkably reduced
